According to article PMC11165448, “Biocatalytic Heteroaromatic Amide Formation in Water Enabled by a Catalytic Tetrad and Two Access Tunnels” (ACS Catalysis, 2024):

Target: T1, acyltransferase from M. smegmatis (MsAcT) (Mycolicibacterium smegmatis, UniProt A0R5U7)
T1 construct: gene MSMEG_6317; His6-tagged, expressed in Escherichia coli, cell-free extract
Experiment: amide formation screen with cell-free extract
Format: cell-based
Details: co-substrate benzylamine 20 mM; ester 20 mM; buffer, 30 C

T1 sequence (A0R5U7 entry or part of it): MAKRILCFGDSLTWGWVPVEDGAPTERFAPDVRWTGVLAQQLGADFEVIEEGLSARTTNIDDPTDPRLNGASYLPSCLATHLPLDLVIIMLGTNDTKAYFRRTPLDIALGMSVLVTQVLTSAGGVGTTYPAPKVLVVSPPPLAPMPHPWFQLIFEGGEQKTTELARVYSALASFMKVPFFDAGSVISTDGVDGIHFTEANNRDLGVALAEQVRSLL

CCOC(=O)c1ccco1 [1e, ethyl 2-furoate]
amide formation screen with cell-free extract: MsAcT and variants displayed activity with ethyl 2-furoate 1e
